{"source": "paper PMC9834240", "about": "“Senescent cells perturb intestinal stem cell differentiation through Ptk7 induced noncanonical Wnt and YAP signaling” (Nature Communications, 2023)", "assay_type_in_all_cases": "cell-based", "key": {"[1]": {"system": "mouse intestinal organoids", "assay": "cystic organoid percentage, co-culture with quiescent or senescent intestinal fibroblasts", "set-up": "key: % = 100×(1 − budding organoids treated/budding organoids control)", "conditions": "relative to DMSO = 0", "method": "(§1) 3-4 biological replicates of organoids from different mice were used per condition. Organoids were cultured in the indicated media, inhibitors, antibodies and/or recombinant proteins for 5 d and fixed in 4% formaldehyde in PBS. Organoids were imaged with a 4× Plan Fluor objective (NA: 0.13, Nikon) on a Nikon Ti-E inverted microscope equipped with a Neo scMOS camera (Andor, Oxford Instruments), a linear encoded automated stage (Applied Scientific Instrumentation), all run by NIS Elements software (Nikon). Organoids were imaged in brightfield and images covering the whole well were stitched and focused into one image projection with an extended depth of focus module (EDF; Nikon). One hundred to 200 organoids per replicate per condition were counted and used for quantification. The number of budding organoids in each condition was normalized by the number of budding organoids in untreated or DMSO treated controls to calculate cystic organoid percentage:1 Cysticorganoidpercentage=100×1−Numberofbuddingorganoidsfromexperiment/Numberofbuddingorganoidsfromcontrol\nMouse intestinal fibroblasts were purchased from Cell Biologics (#C57-6231) and cultured in Complete Fibroblast Medium (Cell Biologics, M2267) at 37 °C and 5% CO2. Cellular quiescence and senescence in mouse intestinal fibroblasts were induced by the similar methods described earlier for MEFs with minor modifications. Briefly, cellular quiescence was induced by culturing the fibroblasts in low serum (0.5% FBS), and cellular senescence was induced by 500 nM doxorubicin treatment for 5 days (doxorubicin; Sigma-Aldrich, #44583). Once cellular quiescence or senescence was induced, MEFs were maintained at 37 °C, 5% CO2, and 3% O2 for another 5 days. The quiescent or senescent fibroblasts were dissociated using 0.05% Trypsin-EDTA (Gibco, #25300-054) and counted for seeding. The same number of quiescent and senescent fibroblasts (5.2 × 10^4 cells) were mixed with intestinal organoids making total volume of 20 μl of Matrigel: organoid culture media mix, which was mounted on a 48 well plate."}, "[2]": {"system": "mouse intestinal organoids", "assay": "cystic organoid percentage, organoids in conditioned media (SCM/QCM) with or without inhibitors or antibodies", "conditions": "for effect on cystic organoid phenotype: SCM-exposed organoids; for percentage of cystic organoids: Fig. 3c, dialyzed, individual mice, n = 3; for cystic organoid percentage: DMSO = 0", "method": "Twenty-four hours before collecting conditioned media (CM), MEFs were washed with serum-free DMEM twice, and serum-free DMEM was added. After 24 h in serum-free DMEM, this CM was collected, filtered using Steriflip filters (Millipore, #SE1M179M6) to remove cell debris, and concentrated using centrifugal filter units (Amicon ultra-15 centricon; Millipore, # UFC900324). […] CM was filtered and dialyzed for 24–48 h to remove the inhibitors before concentration.\n(§2) The jejunum part of the small intestine was removed, flushed with PBS, opened longitudinally, then cut into 0.5 cm pieces. The collected tissues were washed with ice cold PBS multiple times by vortexing and incubated in PBS containing 2.5 mM EDTA for 5 min at 37 °C. After gentle shaking and aspiration, tissues were incubated in PBS containing 5 mM EDTA for 7 min at 37 °C. Tissues were then washed with PBS to remove EDTA and vigorously shaken to release crypts. The released crypts were passed through 70 μm strainers, washed with PBS, and pelleted by centrifugation at 200 × g.\nas §1"}, "[3]": {"system": "mouse intestinal organoids", "assay": "inhibition of Wnt5a-induced cystic organoids", "set-up": "key to cystic organoids (sheet SF.5b): % cystic = 100×(1 − budding organoids treated/control)", "conditions": "relative to Untreated = 0", "method": "as §2, with “g. Resuspended crypts were mixed with Matrigel (Corning, #356231; Lot#8218007) and pipetted into culture plates. After mixture of crypts and Matrigel solidified, IntestiCult Organoid Growth Medium (Stem Cell Technologies, #06005; Lots #1000021927, #1000034230, #1000037372) was added. Seven days after seeding, organoids were resuspended in dissociation buffer (Gentle Cell Dissociation Reagent; Stem Cell Technologies, #07174), dissociated by pipetting, and seeded for experiments.” for “g.”\nas §1"}}, "note": "Several values for one entry are separate records, joined by “and”; a condition that tells them apart may be missing. Equal entries are not always repeated."}
{"compound": "C=CC[C@@H]1/C=C(\\C)C[C@H](C)C[C@H](OC)[C@H]2O[C@@](O)(C(=O)C(=O)N3CCCC[C@H]3C(=O)O[C@H](/C(C)=C/[C@@H]3CC[C@@H](O)[C@H](OC)C3)[C@H](C)[C@@H](O)CC1=O)[C@H](C)C[C@@H]2OC", "note": "[FK506]", "values": [{"measurement": "cystic organoids (sheet SF.5d)", "setting": "[1]; 10 uM FK506, no fibroblasts, replicate 1", "result": 16.7523}, {"measurement": "cystic organoids (sheet SF.5d)", "setting": "[1]; 10 uM FK506, no fibroblasts, replicate 2", "result": 26.0945}, {"measurement": "cystic organoids (sheet SF.5d)", "setting": "[1]; 10 uM FK506, no fibroblasts, replicate 3", "result": 24.3439}, {"measurement": "cystic organoids (sheet SF.5d)", "setting": "[1]; Q + 10uM FK506 (quiescent fibroblasts), replicate 1", "result": 27.9243}, {"measurement": "cystic organoids (sheet SF.5d)", "setting": "[1]; Q + 10uM FK506 (quiescent fibroblasts), replicate 2", "result": 44.452}, {"measurement": "cystic organoids (sheet SF.5d)", "setting": "[1]; Q + 10uM FK506 (quiescent fibroblasts), replicate 3", "result": 38.0019}, {"measurement": "cystic organoids (sheet SF.5d)", "setting": "[1]; SEN + 10uM FK506 (senescent fibroblasts), replicate 1", "result": 52.1362}, {"measurement": "cystic organoids (sheet SF.5d)", "setting": "[1]; SEN + 10uM FK506 (senescent fibroblasts), replicate 2", "result": 72.7766}, {"measurement": "cystic organoids (sheet SF.5d)", "setting": "[1]; SEN + 10uM FK506 (senescent fibroblasts), replicate 3", "result": 37.8556}, {"measurement": "effect on cystic organoid phenotype", "setting": "[2]", "result": "had no effect on this phenotype"}]}
{"compound": "CNC(=O)[C@H](Cc1c[nH]c2ccccc12)NC(=O)[C@@H](CC(=O)NO)CC(C)C", "note": "[GM6001]", "values": [{"measurement": "percentage of cystic organoids", "setting": "[2]; SCM from MEFs exposed to GM6001 (20 uM, 24 h)", "result": "29.2391% and 41.0714% and 39.5302%"}]}
{"compound": "O=C(CSc1nc2c(c(=O)n1-c1ccccc1)SCC2)Nc1ccc(-c2ccccc2)cn1", "note": "[IWP-L6]", "values": [{"measurement": "cystic organoid percentage", "setting": "[2]; SF.3d, SCM + inhibitor, replicate 1", "result": 46.6221}, {"measurement": "cystic organoid percentage", "setting": "[2]; SF.3d, SCM + inhibitor, replicate 2", "result": 58.2456}, {"measurement": "cystic organoid percentage", "setting": "[2]; SF.3d, SCM + inhibitor, replicate 3", "result": 31.9347}]}
{"compound": "CN([C@@H](Cc1ccc(OS(=O)(=O)c2cccc3cnccc23)cc1)C(=O)N1CCN(c2ccccc2)CC1)S(=O)(=O)c1cccc2cnccc12", "note": "[KN62]", "values": [{"measurement": "cystic organoid percentage", "setting": "[2]; Fig.5l, 10uM, no conditioned medium, replicate 1", "result": 0.2849}, {"measurement": "cystic organoid percentage", "setting": "[2]; Fig.5l, 10uM, no conditioned medium, replicate 2", "result": -0.03848}, {"measurement": "cystic organoid percentage", "setting": "[2]; Fig.5l, 10uM, no conditioned medium, replicate 3", "result": 4.343}, {"measurement": "cystic organoid percentage", "setting": "[2]; Fig.5l, QCM + 10uM, replicate 1", "result": -7.21}, {"measurement": "cystic organoid percentage", "setting": "[2]; Fig.5l, QCM + 10uM, replicate 2", "result": -3.018}, {"measurement": "cystic organoid percentage", "setting": "[2]; Fig.5l, QCM + 10uM, replicate 3", "result": -12.8255}, {"measurement": "cystic organoid percentage", "setting": "[2]; Fig.5l, SCM + 10um, replicate 1", "result": -3.501}, {"measurement": "cystic organoid percentage", "setting": "[2]; Fig.5l, SCM + 10um, replicate 2", "result": 1.186}, {"measurement": "cystic organoid percentage", "setting": "[2]; Fig.5l, SCM + 10um, replicate 3", "result": 0.111}]}
{"compound": "O=C(O)c1ccc2c3c1cccc3c(=O)n1c3ccccc3nc21", "note": "[STO609]", "values": [{"measurement": "cystic organoid percentage", "setting": "[2]; Fig.5l, 5uM, no conditioned medium, replicate 1", "result": -8.274}, {"measurement": "cystic organoid percentage", "setting": "[2]; Fig.5l, 5uM, no conditioned medium, replicate 2", "result": -5.955}, {"measurement": "cystic organoid percentage", "setting": "[2]; Fig.5l, 5uM, no conditioned medium, replicate 3", "result": -8.683}, {"measurement": "cystic organoid percentage", "setting": "[2]; Fig.5l, QCM + 5uM, replicate 1", "result": -3.426}, {"measurement": "cystic organoid percentage", "setting": "[2]; Fig.5l, QCM + 5uM, replicate 2", "result": 1.872}, {"measurement": "cystic organoid percentage", "setting": "[2]; Fig.5l, QCM + 5uM, replicate 3", "result": -3.616}, {"measurement": "cystic organoid percentage", "setting": "[2]; Fig.5l, SCM + 5um, replicate 1", "result": 16.8399}, {"measurement": "cystic organoid percentage", "setting": "[2]; Fig.5l, SCM + 5um, replicate 2", "result": 8.659}, {"measurement": "cystic organoid percentage", "setting": "[2]; Fig.5l, SCM + 5um, replicate 3", "result": 6.694}]}
{"compound": "CC(C)C[C@H](CC(=O)NO)C(=O)N[C@@H](Cc1ccc2ccccc2c1)C(=O)N[C@@H](C)C(=O)NCCN", "note": "[TAPI-1]", "values": [{"measurement": "percentage of cystic organoids", "setting": "[2]; SCM from MEFs exposed to TAPI-1 (50 uM, 24 h)", "result": "21.6102% and 25.641% and 30.6707%"}]}
{"compound": "O=C(CCl)c1ccccc1Nc1cccc(C(F)(F)F)c1", "note": "[TED347]", "values": [{"measurement": "cystic organoid percentage", "setting": "[2]; Fig.7e, 2 uM, no conditioned medium, replicate 1", "result": -4.167}, {"measurement": "cystic organoid percentage", "setting": "[2]; Fig.7e, 2 uM, no conditioned medium, replicate 2", "result": 2.041}, {"measurement": "cystic organoid percentage", "setting": "[2]; Fig.7e, 2 uM, no conditioned medium, replicate 3", "result": 3.815}, {"measurement": "cystic organoid percentage", "setting": "[2]; Fig.7e, QCM + 2 uM, replicate 1", "result": 3.646}, {"measurement": "cystic organoid percentage", "setting": "[2]; Fig.7e, QCM + 2 uM, replicate 2", "result": 2.9703}, {"measurement": "cystic organoid percentage", "setting": "[2]; Fig.7e, QCM + 2 uM, replicate 3", "result": -0.09671}, {"measurement": "cystic organoid percentage", "setting": "[2]; Fig.7e, SCM + 2 uM, replicate 1", "result": 13.1944}, {"measurement": "cystic organoid percentage", "setting": "[2]; Fig.7e, SCM + 2 uM, replicate 2", "result": 21.2963}, {"measurement": "cystic organoid percentage", "setting": "[2]; Fig.7e, SCM + 2 uM, replicate 3", "result": 18.1818}, {"measurement": "effect on cystic organoid phenotype", "setting": "[2]", "result": "reduced the percentage of cystic organoids"}]}
{"compound": "CN1CCN(CCCN2c3ccccc3Sc3ccc(C(F)(F)F)cc32)CC1", "note": "[Trifluoperazine A]", "values": [{"measurement": "cystic organoids (sheet SF.5b)", "setting": "[3]; 100 nM Trifluoperazine A, no Wnt5a, replicate 1", "result": 1.842}, {"measurement": "cystic organoids (sheet SF.5b)", "setting": "[3]; 100 nM Trifluoperazine A, no Wnt5a, replicate 2", "result": -0.6895}, {"measurement": "cystic organoids (sheet SF.5b)", "setting": "[3]; 100 nM Trifluoperazine A, no Wnt5a, replicate 3", "result": -1.481}, {"measurement": "cystic organoids (sheet SF.5b)", "setting": "[3]; 100 nM Trifluoperazine A, no Wnt5a, replicate 4", "result": 3.596}, {"measurement": "cystic organoids (sheet SF.5b)", "setting": "[3]; 1 uM Trifluoperazine A, no Wnt5a, replicate 1", "result": -0.2581}, {"measurement": "cystic organoids (sheet SF.5b)", "setting": "[3]; 1 uM Trifluoperazine A, no Wnt5a, replicate 2", "result": -2.568}, {"measurement": "cystic organoids (sheet SF.5b)", "setting": "[3]; 1 uM Trifluoperazine A, no Wnt5a, replicate 3", "result": -0.6142}, {"measurement": "cystic organoids (sheet SF.5b)", "setting": "[3]; 1 uM Trifluoperazine A, no Wnt5a, replicate 4", "result": -2.171}, {"measurement": "cystic organoids (sheet SF.5b)", "setting": "[3]; Wnt5a + 100 nM Trifluoperazine A, replicate 1", "result": 12.7683}, {"measurement": "cystic organoids (sheet SF.5b)", "setting": "[3]; Wnt5a + 100 nM Trifluoperazine A, replicate 2", "result": 12.5989}, {"measurement": "cystic organoids (sheet SF.5b)", "setting": "[3]; Wnt5a + 100 nM Trifluoperazine A, replicate 3", "result": 11.621}, {"measurement": "cystic organoids (sheet SF.5b)", "setting": "[3]; Wnt5a + 100 nM Trifluoperazine A, replicate 4", "result": 16.7645}, {"measurement": "cystic organoids (sheet SF.5b)", "setting": "[3]; Wnt5a + 1 uM Trifluoperazine A, replicate 1", "result": 9.106}, {"measurement": "cystic organoids (sheet SF.5b)", "setting": "[3]; Wnt5a + 1 uM Trifluoperazine A, replicate 2", "result": 10.2184}, {"measurement": "cystic organoids (sheet SF.5b)", "setting": "[3]; Wnt5a + 1 uM Trifluoperazine A, replicate 3", "result": 3.882}, {"measurement": "cystic organoids (sheet SF.5b)", "setting": "[3]; Wnt5a + 1 uM Trifluoperazine A, replicate 4", "result": 10.8434}]}
{"compound": "Verteporfin", "values": [{"measurement": "effect on cystic organoid phenotype", "setting": "[2]", "result": "strongly reduced the cystic organoid percentage"}]}
